In patent publication US7674792B2, “5(Z)-5-(6-quinoxalinylmethylidene)-2-[2,6-dichlorophenyl)amino]-1,3-thiazol-4(5H)-one” (GlaxoSmithKline LLC, priority 2005, dated 2010):
Structures can show the parent of a compound that is named as a salt.

Columns and labels:
[1] = solubility in pH 7.4 phosphate buffer by HPLC; assay type: physicochemical; conditions: 25 °C, aqueous buffer; sodium salt; pH 7.4, 0.05M phosphate buffer; maximum total concentration 200 uM; 25 deg; read-out: Solvent Solubility at 25 deg, Water pH 7.4
Description: The solubility of each compound was determined as follows: two samples are prepared for each compound. One (the standard sample) contains the compound at a fixed concentration of 20 uM in an aqueous/organic mixed solvent cocktail. The other (the test sample) contains the compound at a maximum total concentration of 200 uM in pH 7.4, 0.05M phosphate buffer. The test sample is spun for 15 minutes to remove any undissovled solid. HPLC analyses are performed on these samples. The relative peak areas are used for computing the solubility. The sodium salt of each compound was used for the comparison.

[2] = oral blood exposure (DNAUC) in rats; assay type: in vivo, male Sprague-Dawley rats; parameters: unit not given here; conditions: sodium salt, oral gavage, dose ~1-4 mg/kg, 50% PEG-400, 10% ethanol, 40% of 40% (w/v) aqueous Encapsin
Description: Blood (120 microliters) was sampled at the following time intervals: 0, 20, 40, 60,120,180, 240, 360, 480, and 1440 min. […] The oral exposures of the sodium salt of Compound B and the sodium salt of Compound C were quantified by the same method.

[3] = bioavailability in the Beagle dog; assay type: in vivo
[4] = physical and chemical stability / hygroscopicity of the crystalline compound; assay type: physicochemical

solubility [1]	Oral DNAUC rats (Sprague-Dawley) [2]	bioavailability [3]	hygroscopicity [4]	physical and chemical stability [4]	Structure (SMILES)
31 µM					O=C1NC(=Nc2c(Cl)cccc2Cl)S/C1=C\c1ccc2nccnc2c1 [Compound A · Na, (5Z)-5-(6-quinoxalinylmethylidene)-2-[(2,6-dichlorophenyl)amino]-1,3-thiazol-4(5H)-one sodium salt]
6 µM	0.49				O=C1NC(=Nc2c(Cl)cccc2Cl)S/C1=C\c1ccc2ncccc2c1 [Compound B · Na, 2-(2,6-dichloro-phenylimino)-5-(quinolin-6-ylmethylene)-thiazolidin-4-one sodium salt, reference compound]
	0.34				O=C1NC(=Nc2ccccc2Cl)S/C1=C\c1ccc2nccnc2c1 [Compound C · Na, 2-(2-chloro-phenylimino)-5-(quinoxalin-6-ylmethylene)-thiazolidin-4-one sodium salt]
		demonstrated bioavailability	non-hygroscopic	physically and chemically stable	O=C1NC(=Nc2c(Cl)cccc2Cl)S/C1=C\c1ccc2nccnc2c1 [Compound D, (5Z)-5-(6-quinoxalinylmethylidene)-2-[(2,6-dichlorophenyl)amino]-1,3-thiazol-4(5H)-one meglumine]
